Literature values, collected in publication PMC8329336, “The Role of Co-Signaling Molecules in Psoriasis and Their Implications for Targeted Treatment” (Frontiers in Pharmacology, 2021).
Where two headings read alike, the source gives them in different places.

How the values were obtained:
[1] = tested on: p40 subunits of IL-23 and IL-12; design: method as in Lebwohl et al., 2015; settings: through binding to the p40 subunits of IL-23 and IL-12; ref Lebwohl et al., 2015
[2] = tested on: ICAM-1; design: method as in Wen et al., 2014; Xiong et al., 2015; settings: ref Wen et al., 2014; Xiong et al., 2015
[3] = tested on: human T cells; design: method as in Kuschei et al., 2011; settings: ref Kuschei et al., 2011
[4] = tested on: LFA-1; settings: led to withdrawal from the US market in 2009; ref Kuschei et al., 2011; Hsu and Tsai, 2020
[5] = tested on: LFA-1; design: method as in Guttman-Yassky et al., 2008; Grönholm et al., 2016; settings: ref Guttman-Yassky et al., 2008; Grönholm et al., 2016
[6] = tested on: OX40
[7] = tested on: CD40; settings: for Efficacy (PASI scores of psoriasis) / Adverse event: patients with psoriasis, ref Anil Kumar et al. (2018); for Efficacy (PASI scores of psoriasis): Phase I; for Adverse event: limited number of patients
[8] = Phase I, ref Papp et al. (2017)

For “Anti-p40: approved drug for psoriasis treatment, binds to the p40 subunits of IL-23 and IL-12”, the “IL-23A-induced IL-17A production” value [1] is given as “inhibit”.

In the case of `CC(C)=CCC[C@]1(C)C=Cc2c(O)c3c(c(CC=C(C)C)c2O1)O[C@]12C(=C[C@@H]4C[C@H]1C(C)(C)O[C@@]2(C/C=C(/C)C(=O)O)C4=O)C3=O` [gambogic acid], the effect on psoriasis [2] is given as “improve” and the “expression of ICAM-1” value [2] is given as “inhibiting”.

For `CC1(C)[C@@H](O[C@H]2O[C@H](C(=O)O)[C@@H](O)[C@H](O)[C@H]2O[C@@H]2O[C@H](C(=O)O)[C@@H](O)[C@H](O)[C@H]2O)CC[C@]2(C)[C@H]3C(=O)C=C4[C@@H]5C[C@@](C)(C(=O)O)CC[C@]5(C)CC[C@@]4(C)[C@]3(C)CC[C@@H]12` [glycyrrhizin], the effect on psoriasis [2] is listed as “improve” and the “expression of ICAM-1” value [2] is listed as “inhibiting”.

For “Efalizumab: humanized monoclonal antibody against LFA-1”, the “co-stimulatory molecules ICOS, OX40, CD27, and 4-1BB” value ([3]; human T cells) is given as “downregulating”, the “proliferation and cytokine production of human T cells” value [3] is given as “potently inhibiting” and the Adverse event [4] is given as “Progressive multifocal leukoencephalopathy”. For the same molecule, the “cell-surface molecules involved in T cell activation (CD3, TCR, CD4, CD8, CD28, integrin VLA-4)” value [5] was “downregulate”.

In the case of “KHK4083: fully human monoclonal antibody against OX40”, the Adverse event [6, 8] is listed as “Mild or moderate chills, infusion site reactions”, the PASI scores [6, 8] is listed as “PASI scores↓” and the efficacy ([6]; highest dose (10 mg/ kg), patients with mild to moderate plaque psoriasis, ref Papp et al., 2017) is listed as “good efficacy”. The safety and tolerability ([6]; phase I study, ref Papp et al., 2017) was “safe and well tolerated”.

B1: Bleselumab: fully human IgG4 monoclonal antibody (mAb) that targets CD40 (antibody, chains of the INN, looked up, V domains shown)
VH: QLQLQESGPGLLKPSETLSLTCTVSGGSISSPGYYGGWIRQPPGKGLEWIGSIYKSGSTYHNPSLKSRVTISVDTSKNQFSLKLSSVTAADTAVYYCTRPVVRYFGWFDPWGQGTLVTVSS
VL: AIQLTQSPSSLSASVGDRVTITCRASQGISSALAWYQQKPGKAPKLLIYDASNLESGVPSRFSGSGSGTDFTLTISSLQPEDFATYYCQQFNSYPTFGQGTKVEIK
In the case of B1, the clinically malignant events ([7]; as compared to CD40L-specific mAbs, ref Anil Kumar et al., 2018) is listed as “no clinically malignant events”, the “Efficacy (PASI scores of psoriasis)” value [7] is listed as “Ineffective” and the “Efficacy (PASI scores of psoriasis)” value ([7]; listed as bleselumab) is listed as “did not improve”. The Adverse event [7] was “Transient elevations of liver transaminase enzymes” and the Adverse event ([7]; listed as bleselumab) was “transient elevations in liver transaminase enzymes”.
